Measured values as given in US6998240B2, “Screen for selective inhibitors or activators of Smad protein function” (Wisconsin Alumni Research Foundation, priority 2001, dated 2006).
Residues, ends and D or L forms follow the SMILES beside them.

What was measured:
Smad2-P [1] = molecular target: T1, Smad2-P (Homo sapiens, UniProt Q15796); test: HTRF assay of biotin-FAST peptide binding to Smad2-P (competition)
T1 construct: Smad2; 1–467; pBlueBac; His; made in house; host or cells: Sf9 insect cells (baculovirus), co-infected with virus for membrane-targeted human Alk5 T204D
Source text: (§1) To establish HTRF assays for Smad protein interactions, we have used reagents from Wallac-Perkin Elmer and Packard that include Europium-cryptate coupled to α-His epitope tag antibody, α-GST antibody or Streptavidin. As acceptor fluorophores we have used allophycocyanin (Packard's XL665) coupled to Streptavidin or direct labeling of GST-fusion protein with IC5 (Dojindo). Reagents are mixed in a 50 microliter volume in the wells of a 384 Black non-treated microwell plate (Corning) and HTRF detected in a Wallac Victor V multimode plate reader. The reader detects emission at 615 nm from the Europium chelate donor and at 665 nm from the APC or IC5 acceptor. Background, cross-talk and high FRET wells can be indicated on the plate map to allow the machine to compute a normalized value as a ratio Rn=(ET/D) Dmax where ET=A−BI−(C×D). • A—Fluorescence at 665 nm • BI—Blank (buffer only) at 665 nm • D—Fluorescence at 615 nm • C—Cross-talk correction value calculated from wells containing only donor fluorophore • (from “Quench Correction for LANCE TR-FRET” by Perkin-Elmer Wallace)
(§2) Over the past several months we have developed three HTRF assays for Smad binding interactions. All three assays use a Eu-chelate α-His epitope tag antibody as the donor. The antibody recognizes the hexahistidine epitope tag on the Smad proteins produced in the baculovirus expression system described above. As acceptors, we have used Streptavidin conjugated to allophycocyanin (Packard) that binds to biotinylated peptides. The peptides are synthesized to comprise the Smad interaction domain motif from human FAST or c-Jun (FIG. 3). The FAST 24-mer amino acid sequence is based on the homology between FAST, Mixer and Milk reported by Germain and colleagues (Germain, S., et al., supra, 2000). The24-mer C-JUN sequence is based on studies using deletions and gene fragments to define the Smad interaction motif (Zhang, Y., et al., supra, 1998; Liberati, N. T. et al., Proc. Natl. Acad. Sci. USA 96:4844–9, 1999). We also have developed an HTRF assay using IC5-GST-CBP, a fusion protein comprising the Smad interaction domain motif from CBP (a generous gift of Dr. Yigong Shi, Princeton University).
(§3) The assays are done in a 50 μl volume in the well of a 384-well plate. The assay buffer, as recommended by Packard for their HTRF reagents is 50 mM K-Hepes pH 7.0, 400 mM KF and 0.1% BSA. The high concentration of KF is recommended for the Eu(K) reagents from Packard. […] We have also optimized through many titrations the amount of Smad protein (220 ng/well, ˜4 pmoles per well of monomer), the concentration of biotinylated peptide (1 uMolar for FAST and C-JUN), the amount of Eu-anti-His tag antibody (36 ng/well) and the amount of Streptactin-APC (0.5 μg/well).
We used the FAST-SmadP HTRF assay described above. […] After 1 hr at room temperature, Streptavidin-APC was added to each well and 30 minutes later the fluorescence emissions at 615 nm and 665 nm were read in a PE-Wallac Victor V.

Smad2-P [2] = molecular target: T1, Smad2-P; test: HTRF assay of IC5-GST-CBP binding to phosphorylated Smad2
Source text: as §1, §2, §3
Table 5 contains data from using the GST-CBP fusion protein that is covalently coupled to the IC5 fluorophore acceptor through the cysteines in the GST portion of the fusion protein. There is no biotinylated peptide or Streptavidin-APC in these assays. […] The lower FRET counts could be due to larger distances between the donor and acceptor molecules in the complex. This might be overcome by using direct labeling of the Smad-P complex with Eu-cryptates rather than the Eu-labeled anti-His tag antibody.

[3] = molecular target: Phosphorylated Smad2/4 Complex (Homo sapiens, UniProt Q15796); test: 96 well microplate solid phase binding assay of GST-CBP to phosphorylated Smad2/4 complex; parameters: Smad2; 1–467; pBlueBac; His; Smad4; 1–552; Strep; Strep-tag; made in house
Method: Table 7, below, tabulates the results of a 96 well Microplate Format Binding Assay of CBP to Smad2 and Phosphorylated Smad2/4 Complex. Duplicate wells are shown with indicated amounts of Smad protein bound per well. Three different dilutions of biotinylated GST-CBP protein were added per well and incubated at room temperture for 1 hour. Wells were washed 3× with TBS+1% tween and Alkaline phosphatase conjugated strepavidin (Tropix) added. Bound conjugate was detected by addition of the CSPD substrate (Tropix) and relative light units (RLU) measured in a Tropix 717 microplate reader at a read time of 1 second per well.

competition for Biotin-FAST binding to Smad-2P (in words) (Smad2-P [1]): inability
competition for binding with the GST-CBP fusion protein (in words) (Smad2-P [2]): can compete
Average Normalized Counts (Smad2-P [2]; 50 μM inhibitor peptide, IC5-GST-CBP binding to Smad2-P): 587
remaining activity at 50 µM (Smad2-P [2]; 50 μM inhibitor peptide, IC5-GST-CBP binding to Smad2-P, read-out: Percent of Control (minus background)): 70%
Average Normalized Counts (Smad2-P [2]; 100 μM inhibitor peptide, IC5-GST-CBP binding to Smad2-P): 478
remaining activity at 100 µM (Smad2-P [2]; 100 μM inhibitor peptide, IC5-GST-CBP binding to Smad2-P, read-out: Percent of Control (minus background)): 51%
IC50 (Smad2-P [2]; read-out: concentration of peptide for 50% inhibition of GST-CBP binding): 100 µM
CBP bound by Smad-P complexes relative to an equivalent amount of unphosphorylated Smad [3]: > 30 fold
SMILES: CC[C@H](C)[C@H](NC(=O)[C@H](CC(N)=O)NC(=O)[C@@H](NC(=O)[C@H](CCCNC(=N)N)NC(=O)[C@H](Cc1ccc(O)cc1)NC(=O)[C@H](CC(C)C)NC(=O)[C@H](Cc1c[nH]cn1)NC(=O)[C@H](CCC(N)=O)NC(=O)[C@H](CCC(N)=O)NC(=O)[C@H](CCC(N)=O)NC(=O)[C@H](CCC(N)=O)NC(=O)[C@H](C)NC(=O)[C@H](CCC(=O)O)NC(=O)[C@H](CCCNC(=N)N)NC(=O)[C@H](CCC(=O)O)NC(=O)[C@@H](NC(=O)[C@H](CCC(N)=O)NC(=O)[C@H](CCCNC(=N)N)NC(=O)[C@H](C)NC(=O)[C@H](C)NC(=O)[C@H](CCC(=O)O)NC(=O)[C@@H](NC(=O)[C@H](C)N)C(C)C)[C@@H](C)CC)C(C)C)C(N)=O [CBP] (H-AVEAARQIEREAQQQQHLYRVNI-NH2; N-terminus assumed)
